A short description of data set [1]: Inhibition of Wnt/beta-catenin transactivation signalling in Wnt3a stimulated human HEK 293 STF cells harbouring TCF/LEF1 luciferase reporter gene assessed as reduction in luciferase activity by TOPFlash luciferase reporter assay. The format is cell-based. In general terms: In a reporter assay the amount or activity of a reporter protein is the signal.
For data set [2], the target named is Casein kinase I isoform alpha (Homo sapiens, UniProt P48729). Kind of data set: Binding affinity to CK1alpha (unknown origin) using casein as substrate by fluorescence based analysis.
Data set [3] is described as follows: Inhibition of hedgehog signalling in mouse Shh Light II cells assessed as luciferase activity. The format is cell-based.
Data set [4] deals with Daoy. Kind of data set: Antiproliferative activity against human Daoy cells assessed as inhibition of cell proliferation incubated for 72 hrs by MTS assay. The format is functional, cell-based. On the technique in general: Tetrazolium assays rely on reduction of a dye to a coloured formazan, in cell work by metabolically active cells.
Data set [5] is described as follows: Antiproliferative activity against human UW228 cells assessed as inhibition of cell proliferation incubated for 72 hrs by MTS assay. It counts as functional, cell-based. The note with it: UW228, 72 h.
In data set [6] the test system is Daoy. Kind of data set: Antiproliferative activity against human Daoy cells assessed as reduction in cell viability by MTT assay. The format is functional, cell-based.
The nature of data set [7]: Antiproliferative activity against human Med1 cells assessed as reduction in cell viability. It counts as functional, cell-based.
A short description of data set [8]: Antiproliferative activity against human Medulloblastoma cells expressing wild type SMO assessed as reduction in cell viability. It counts as functional, cell-based.
Data set [9] is described as follows: Inhibition of hedgehog signalling in mouse Shh Light II cells co-transfected with Gli firefly and Renilla-luciferase assessed as reduction in SAG-induced Gli luciferase activity incubated for 24 hrs by dual luciferase reporter assay. The format is cell-based.
Data set [10] has as its target T1, Protein smoothened (Homo sapiens, UniProt Q99835). Kind of data set: Binding affinity to human SMO (181 to 787 residues) expressed in human HEK293 cells assessed as radioactivity incubated for 2 hrs in presence of H3-labeled smo antagonist by ligand-displacement assay. It counts as cell-based.
The nature of data set [11]: Inhibition of Shh-induced hedgehog signalling pathway in mouse MEF cells expressing Gli-Luc reporter gene assessed as reduction in Gli1 transcription activity incubated for 48 hrs in presence of recombinant mouse shh stimulation by Bright-Glo luciferase Assay.
Another data set has as its system D283 Med. The data set is described as follows: Antiproliferative activity against human D283 Med cells assessed as inhibition of cell proliferation incubated for 48 hrs by MTS assay. The format is functional, cell-based.
Data set [12] in a line: Inhibition of hedgehog signalling in mouse Shh Light II cells co-transfected with Gli firefly luciferase assessed as inhibition of Gli luciferase expression measured after 30 hrs by luciferase reporter assay. It counts as cell-based.
The nature of data set [13]: Antiproliferative activity against human Medulloblastoma cells expressing MYC and wild type Gfi1 assessed as reduction in cell viability incubated for 48 hrs by Cell TiterGlo luminescent assay. The format is functional, cell-based. (Cellular ATP, detected with luciferase, serves as a proxy for viable cell number.)
Data set [14] in a line: Half life in CD-1 mouse plasma at 10 mg/kg, po administered as single dose. The format is ADME, organism-based.
In data set [15] the target is T1, Protein smoothened. Kind of data set: Inhibition of endogenous human Smo overexpressed in mouse C3H 10T1/2 cells cotransfected with Gli reporter gene assessed as Gli luciferase activity by dual luciferase assay. It counts as functional, cell-based.
For data set [16], the target named is Protein smoothened (Mus musculus, UniProt P56726). Kind of data set: Inhibition of endogenous mouse Smo overexpressed in mouse C3H 10T1/2 cells cotransfected with Gli reporter gene assessed as Gli luciferase activity by dual luciferase assay. The format is functional, cell-based.
The nature of data set [17]: Prodrug conversion in ICR mouse brain assessed as Cmax of PF403 metabolite at 10 mg/kg, po and measured after 5 mins by LC-MS/MS analysis. It counts as ADME, organism-based. More on the design: dose 10 mg/kg, time 5 min, route po. The note with it: in vivo.
The nature of data set [18]: Inhibition of hedgehog signalling in mouse Shh Light II cells transfected with Gli luciferase reporter gene assessed as Gli luciferase activity assessed as luciferase activity by luciferase assay. It counts as cell-based.
Data set [19] is described as follows: Antiproliferative activity against neonatally irradiated Ptch1-/+ mouse medulloblastoma cells assessed as inhibition of cell proliferation. The format is functional, cell-based. Particulars: light or radiation study.
Data set [20] in a line: Ratio of AUC in brain to plasma of C57BL/6 mouse at 2 mg/kg, po and measured after 24 hrs by LC/MS-MS analysis. The format is ADME, organism-based. Particulars: read-out: Ratio AUC.
Data set [21] in a line: Inhibition of Hedgehog signaling in mouse NIH3T3 cells expressing GRE-Luc reporter gene assessed luciferase activity incubated for 48 hrs in presence of SAG by Bright-Glo luciferase assay. It counts as cell-based.
Data set [22] can be described thus: Inhibition of hedge hog pathway in mouse Sufu-KO-LIGHT cells expressing firefly luciferase reporter gene assessed as inhibition of Gli transcription incubated for 16 hrs by Bright-Glo luciferase assay. It counts as cell-based.

In general, IC50 refers to the concentration that inhibits the measured activity by half. The term Kd denotes the equilibrium constant for the complex coming apart. High values mean a looser complex, low ones a tighter complex. The term half-life denotes the time needed for the level to fall by half in the phase considered. A high value points to slow loss. A word on the Cmax: it is the peak of the concentration-time curve.

T1 sequence (Q99835 whole entry, the tested form may be a part): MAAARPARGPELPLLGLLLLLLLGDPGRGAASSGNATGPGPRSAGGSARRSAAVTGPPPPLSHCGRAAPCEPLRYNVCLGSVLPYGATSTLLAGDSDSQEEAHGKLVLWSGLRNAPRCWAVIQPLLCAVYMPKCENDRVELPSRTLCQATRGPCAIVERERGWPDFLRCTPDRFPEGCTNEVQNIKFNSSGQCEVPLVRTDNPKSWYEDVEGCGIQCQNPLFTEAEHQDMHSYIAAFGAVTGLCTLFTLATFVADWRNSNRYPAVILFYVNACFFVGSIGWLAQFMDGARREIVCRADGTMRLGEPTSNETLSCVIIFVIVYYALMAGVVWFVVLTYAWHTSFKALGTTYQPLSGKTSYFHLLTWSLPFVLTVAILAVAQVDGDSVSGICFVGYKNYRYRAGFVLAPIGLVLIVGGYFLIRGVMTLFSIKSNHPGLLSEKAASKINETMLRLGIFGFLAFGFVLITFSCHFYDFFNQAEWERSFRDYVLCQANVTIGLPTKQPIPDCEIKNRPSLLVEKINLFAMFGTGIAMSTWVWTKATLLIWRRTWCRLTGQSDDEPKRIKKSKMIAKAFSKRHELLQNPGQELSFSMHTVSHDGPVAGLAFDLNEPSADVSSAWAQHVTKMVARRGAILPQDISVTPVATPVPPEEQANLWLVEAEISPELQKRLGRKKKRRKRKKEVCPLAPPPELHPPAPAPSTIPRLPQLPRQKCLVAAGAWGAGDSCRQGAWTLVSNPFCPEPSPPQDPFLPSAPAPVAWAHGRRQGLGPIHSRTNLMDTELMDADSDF
Chain of Casein kinase I isoform alpha (P48729 whole entry, canonical isoform): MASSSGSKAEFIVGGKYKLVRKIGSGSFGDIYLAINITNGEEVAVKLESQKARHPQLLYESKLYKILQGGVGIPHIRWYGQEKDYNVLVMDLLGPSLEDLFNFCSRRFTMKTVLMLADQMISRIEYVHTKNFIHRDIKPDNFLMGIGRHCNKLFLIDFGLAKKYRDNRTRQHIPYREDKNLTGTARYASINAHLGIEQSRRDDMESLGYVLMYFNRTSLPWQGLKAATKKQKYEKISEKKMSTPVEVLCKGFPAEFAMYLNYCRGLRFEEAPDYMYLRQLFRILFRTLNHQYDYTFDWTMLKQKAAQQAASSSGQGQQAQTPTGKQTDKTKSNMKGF
Chain of Protein smoothened (Mus musculus, UniProt P56726) (P56726 whole entry): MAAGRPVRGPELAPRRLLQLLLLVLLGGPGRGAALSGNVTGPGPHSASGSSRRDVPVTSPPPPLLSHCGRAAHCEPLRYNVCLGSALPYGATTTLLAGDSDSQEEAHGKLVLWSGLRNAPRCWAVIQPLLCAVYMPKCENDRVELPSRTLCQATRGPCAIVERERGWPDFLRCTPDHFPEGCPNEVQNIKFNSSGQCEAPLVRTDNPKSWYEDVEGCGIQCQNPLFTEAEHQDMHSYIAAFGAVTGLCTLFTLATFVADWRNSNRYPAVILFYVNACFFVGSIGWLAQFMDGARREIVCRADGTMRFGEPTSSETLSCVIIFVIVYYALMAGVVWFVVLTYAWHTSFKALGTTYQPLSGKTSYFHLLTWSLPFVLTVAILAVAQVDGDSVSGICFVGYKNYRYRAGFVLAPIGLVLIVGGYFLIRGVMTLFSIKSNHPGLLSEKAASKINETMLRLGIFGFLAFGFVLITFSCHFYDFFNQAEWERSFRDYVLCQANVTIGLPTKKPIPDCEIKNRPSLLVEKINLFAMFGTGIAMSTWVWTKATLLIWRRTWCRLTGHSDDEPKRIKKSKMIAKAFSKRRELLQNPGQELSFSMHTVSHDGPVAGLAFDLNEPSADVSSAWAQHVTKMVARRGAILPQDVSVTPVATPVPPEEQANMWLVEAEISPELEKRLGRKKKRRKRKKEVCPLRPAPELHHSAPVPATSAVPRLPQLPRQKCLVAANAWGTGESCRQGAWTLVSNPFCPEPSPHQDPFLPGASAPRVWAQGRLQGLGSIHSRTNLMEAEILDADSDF

With `Cc1cc(/C=C/c2ccc3cc(N(C)C)ccc3[n+]2C)c(C)n1-c1ccccc1`, the IC50 in [1] and in data set [3] was 10 nM each time. Besides, the Kd in [2] was determined as 1 nM.

For `COc1ccc(Cn2c3ncnc4c(ncn4Cc4ccc(OC)cc4)c-3nc2=O)cc1`, the IC50 with Daoy [4] turned out to be 2500 nM; in data set [5], 3500 nM.

For the compound `COc1cc2c3c(c4ccc(O)cc4c2cc1OC)C[C@@H]1CCCN1C3`, in the data set with Daoy [6], the IC50 stood at 0.013 nM.

With `Cc1sc2c(c1C)C(c1ccc(Cl)cc1)=N[C@@H](CC(=O)OC(C)(C)C)c1nnc(C)n1-2`, the half-maximal inhibitory concentration (IC50) in data set [7] and in data set [8] was 50 nM each time.

As to `COc1cc2c(cc1-c1c(C)noc1C)ncc1[nH]c(=O)n([C@H](C)c3ccccn3)c12`, the IC50 in data set [9] was 30 nM.

Turning to `Cc1cnc(-c2cc(N3CCN(C(=O)CCS(C)(=O)=O)CC3)ncc2Cl)c(C)c1`, the IC50 on Protein smoothened [10] came out at 5.8 nM; in [11] it was 2.7 nM.

For `Fc1ccc(CNc2ncnc3c2cnn3CC(Cl)c2ccc(Cl)cc2)cc1` (stereo not given), the IC50 in the data set with D283 Med came to 4890 nM.

Regarding `C[C@H](CO)N1C[C@H](C)[C@H](CN(C)S(=O)(=O)c2ccc(Cl)cc2Cl)Oc2c(NC(=O)C3CC3)cccc2C1=O`, the IC50 in data set [12] was 60 nM.

Take `c1ccc([C@@H]2C[C@H]2NC2CCNCC2)cc1`: in data set [13], the IC50 stood at 0.05 nM.

Consider `C[C@@H]1CN(c2ccc(C(=O)Nc3ccc(Cl)c(NC(=O)c4cccc(Cl)c4)c3)cn2)C[C@H](C)N1`, for which the half-life in data set [14] is 22 h. For the same compound, the IC50 at Protein smoothened [15] is 8 nM; on Protein smoothened [16], 27 nM.

In the case of `COc1cc2c3c(c4ccc(OC(=O)C(C)(C)C)cc4c2cc1OC)C[C@@H]1CCCN1C3`, in [17], the Cmax came out at 37.76 ng/mL.

For `Cn1c(-c2ccccc2C(F)(F)F)nnc1C12CCC(c3noc(C4CC(F)(F)C4)n3)(CC1)CC2`, the IC50 in data set [18] was found to be 1500 nM; in data set [19] it was 300 nM. Moreover, the Kp at 24 h in data set [20] amounted to 0.6.

As to `Cc1cnc(-c2cc(N3CCc4nc(N5CCC(O)CC5)ncc4C3)ccc2Cl)c(C)c1`, the IC50 in [21] was found to be 7.5 nM.

On to `CCOc1ccc(-[n+]2cc(-c3ccc(Br)cc3)n3c2CCc2ccccc2-3)cc1`, for which the 50% inhibitory concentration (IC50) in data set [22] was 1420 nM.

In the case of `C=CCn1c(=O)c2cnc(Nc3ccc(N4CCN(C)CC4)cc3)nc2n1-c1cccc(C(C)(C)O)n1` [ADAVOSERTIB], the IC50 with Daoy [4] was found to be 150 nM; in data set [5], 232 nM.

(Values after ChEMBL document CHEMBL5096161, “Medulloblastoma drugs in development: Current leads, trials and drawbacks” (Eur J Med Chem, 2021).)
